Entries after “also recorded” stand apart in the source; their conditions may differ.
Key:
human cancer cells = conditions: cited from earlier work
[1] = system: human mammary cancer cells (MDA-MB-231); conditions: 1 mM DIME [sic]; within 18 hours; cited from earlier work
malignant tumors = conditions: cited from earlier work
[2] = system: microtubule protein (MTP); assay: Microtubule assembly (MTP polymerization) in vitro, optical test at 350 nm; assay type: biochemical, bovine or rabbit (brain)
From the text: This inhibition is critically dependent on the concentration of GTP. The quantitative correlation between the concentrations of DIME and GTP, under conditions of a linear rate of MTP polymerization, follows Michaelis-Menten kinetics and the inhibition portrays a "mixed" type, where km for GTP and Vmax are altered simultaneously. Chemical analogues of DIME inhibit MTP polymerization parallel to their antitumorigenic action in vivo. The MTP site is one of the early cellular response sites of DIME.
J. Oncol. Abnormal spindle structures could be the result of DIME-MTP interaction or reactions of DIME with components of the microtubule organizing center or with as yet undefined systems sequentially or in concert. Since time-dependent quantitative analysis of the MTP system in situ is unsuitable for initial velocity measurement we adapted the in vitro assembly system of neurotubules as a model for a quantitative analysis of the interaction of DIME with MTP. […] The time course of MTP assembly consists of initiation and propagation and termination steps, Gaskin, et al., 1974, "Turbidimetric studies of the in vitro assembly and disassembly of porcine neurotubules", J. Mol. Biol. 89:737-758. The rate of propagation under defined conditions is sufficiently linear to permit kinetic analysis, that can be evaluated with respect DIME and GTP concentrations. As we show here the inhibition of MTP assembly by DIME occurs in the same range of drug concentration as required to inhibit tumorigonesis in vivo, or to inhibit cell replication or induce eventual cell death; Mendeleyev, et al., 1997. "Structural specificity and tumoricidal action of methyl-3,5-diiodo-4-(4'-methoxyphenoxy)benzoate (DIME)" Int. J. Oncol., 10:689-695. Therefore the DIME-MTP interaction is most probably a component of the apparently pleiotropic cellular mechanism of action of DIME.
Preparation of MTP and an optical test for polymerization was adopted from published methods, Gaskin, et al., 1974, "Turbidimetric studies of the in vitro assembly and disassembly of porcine neurotubules", J. Mol. Biol. 89:737-758; Tiwari, et al., 1993, "A pH and temperature-dependent cycling method that doubles the yield of microtubule protein", Anal. Biochem. 215:96-103. Bovine or rabbit brain was homogenized in an equal volume of ice cold buffer containing 100 mM Pipes/K^+ (pH 7.4), 4 mM EGTA. 1 mM MgCl2, 0.5 mM DTT and 0.1 mM PMSF, and centrifuged at 39,000 g for 1 hour at 4° C. To the supernatant, DMSO (8% final concentration) and GTP (1 mM final concentration) were added, followed by incubation at 37° C. for 30 minutes. Microtubules were pelleted at 100,000 g at 37° C. for 30 minutes. The pellets were incubated on ice for 15 minutes, followed by resuspension in ice cold PEM buffer (100 mM Pipes/K+ (pH 6.9), 1 mM EGTA, 1 mM MgCl2). This warm polymerization and cold depolymerization cycle was repeated once more and the cold, resuspended monomeric MTP (8-10 mg/ml protein) was used for the optical test for polymerization kinetics. Both rabbit or bovine brain yielded identical MTP preparations.
The polymerization reaction was started by the addition of […] of MTP solution (equivalent to 0.8-1.0 mg protein) and initial linear rates of increase in absorbance at 350 nm followed and recorded at 37° C. in a Perkin-Elmer 552 double beam spectrophotometer, equipped with a thermostatically controlled cuvette holder.
It is apparent that the rate of MTP polymerization proceeds in a linear manner, thus conditions for maximal polymerization rates as defined by Berne, B, 1974, "Interpretation of light scattering from long rods", J. Mol. Biol. 89:755-758 appear fulfilled. Therefore it is possible to determine the quantitative correlation between [DIME] and [GTP] by comparing the linear rate in the presence of varying drug and activator concentrations.
The assay system consisted of 240 μl of PEM buffer containing 8% DMSO […]
(added in 3 μl), or solvent control and 0.6 mg MTP (60 μl). […]

Compound: COC(=O)c1cc(I)c(Oc2ccc(OC)cc2)c(I)c1 [DIME, methyl 3,5-diiodo-4-(4'-methoxyphenoxy)benzoate]
- cytostatic / cytocidal activity (human cancer cells; cellular assays and in vivo): highly active both in cellular assays and in vivo
- growth inhibition of malignant cell types (human cancer cells): inhibit the growth of a variety of malignant cell types
- tumor cell apoptosis (human cancer cells): induce tumor cell apoptosis preceded by micronucleation
- tumoricidal activity in cell cultures (human cancer cells): potential tumoricidal agent both in cell cultures and in vivo
- abnormal spindle structures [1]: induced abnormal spindle structures
- anti-tumor activity in vivo (malignant tumors): potential tumoricidal agent both in cell cultures and in vivo; also recorded: highly active both in cellular assays and in vivo
- Percent inhibition of intitial velocity (microtubule assembly in vitro) ([2]; 10 μM drug, GTP 1 mM, 37° C., averages of duplicate assay): 93%
- change of km GTP ([2]; 1 mM DIME [sic]): ~50%
- decrease of Vmax ([2]; 1 mM DIME [sic]): ~50%
- Km ([2]; 1 mM DIME [sic], from 6.7 mM without drug, read-out: km GTP in presence of DIME): 14 µM
- inhibition of MTP polymerization with increasing DIME ([2]; 1 mM GTP, increasing DIME concentrations): progressively inhibit MTP polymerization
- inhibition of GTP-dependent polymerization of MTP ([2]; DIME at 1 to 5 mM as printed): inhibits the GTP-dependent polymerization of MTP
- type of inhibition of MTP polymerization (DIME vs GTP) ([2]; double reciprocal plot / Michaelis-Menten, 1 mM DIME): "mixed" type inhibition
- inhibitory action on MTP assembly (comparison, FIG. 2) ([2]; drug concentrations up to 20 μM): similar
- order of potency on MTP assembly (FIG. 3) ([2]; zero to 10 μM drug, lowered GTP concentration (10 μM)): DIME>DIPE>DIPP

From patent US5922775A, “Method of treating malignant tumors with ketone thyroxine analogues having no significant hormonal activity” (priority 1997, dated 1999)
